# Target: T1, human vasopressin V1a receptor subtype (Homo sapiens, UniProt P37288)
# T1 construct: host or cells: CHO cells, stably transfected (pZeoSV vector for the Thibonnier line)
# Test: Vasopressin binding in CHO cell membranes expressing human vasopressin V1a subtype receptors ([3H]Manning ligand radioligand binding)
# Conditions: 100 nM
# Description: Vasopressin Binding in Chinese Hamster Ovary Cell Membranes Expressing Human Vasopressin V1a Subtype Receptors
# The trypsin is removed by aspiration and the cells dislodged by tapping. Cell Culture medium (e.g. 30 mL for 1:30 split) is immediately added and mixed well to inactivate trypsin. 1 mL of detached cells is added to new culture flasks containing fresh cell culture medium (e.g., into 25 mL per T-150 flask), and mixed gently. The cells are incubated at 37° C. in 5% CO2. The medium is changed at 3 to 4 days interval (or as appropriate). […] All steps are done under sterile conditions.
# The cells are washed twice gently with Hank's Balanced Salt solution (e.g,. use 10 mL per T-150 flask). […] The contents are transferred to centrifuge tubes (50 mL) kept in an ice bath. All subsequent steps are done at 4° C. The tubes are centrifuged at 300×g for 15 min (1380 rpm on SORVAL, Model RT6000D, using the rotor for 50 mL tubes). The supernatant is discarded and the cells suspended in homogenizing buffer(10 mM Tris-HCl containing 0.25 M sucrose and 1 mM EDTA, pH 7.4) ensuring that the volume of the buffer is about ten times the volume of the cell pellet. The cells are pooled into a centrifuge tube (50 mL) and homogenized with Polytron at setting 6 for 10 sec. The homogenate is transferred into a Potter-Elvjehm homogenizer and homogenized with 3 strokes. The homogenate is centrifuged at 1500×g for 10 min at 4° C. (3100 rpm using SORVAL, model RT6000D, using the rotor for 50 mL tubes). The pellet is discarded. The supernatant is centrifuged at 100,000×g for 60 min. at 4° C. (Beckman L8-80M ultracentrifuge; spin at 37,500 rpm with rotor type 70 Ti for 50 mL tubes; 38,000 rpm with type 80Ti for 15 mL tubes; or 35,800 rpm with rotor type 45Ti). The supernantant is discarded and the pellet suspended in 3 to 4 mL of Tris buffer (50 mM TRIS-HCl, pH 7.4). The protein content is estimated by the Bradford or Lowry method. The volume of the membrane suspension is adjusted with the membrane buffer (50 mM Tris-HCl containing 0.1% BSA and 0.1 mM PMSF) to give 3.0 mg/mL (or as appropriate) of protein. The membranes are aliquoted and stored at −70° C.
# In wells of a 96-well format microtiter plate, is added 90, 110 or 130 μL (to make up a final volume of 200 μL) of assay buffer containing 50 mM of Tris-HCl (pH 7.4), BSA (heat inactivated, protease-free), […], 1 mg % aprotinin, 1 mg % leupeptin, 2 mg % 1,10-phenanthroline, 10 mg % trypsin inhibitor, and 0.1 mM PMSF. The inhibitors are added on the day of the experiment. The components are mixed at room temperature, and then kept in ice bath following adjustment of the pH to 7.4. […] 20 μL of 50% DMSO is added for Manning and other peptide ligands and the assay buffer volume is adjusted accordingly. To each well is added 50 μL of frozen membrane suspension thawed immediately prior to use and diluted in the assay buffer to the required concentration (equivalent to 25 to 50 μg of protein/well as needed). 20 μL of 8 nM [^3H]Manning ligand in the assay buffer, prepared just before use, is added, and incubated at room temperature for 60 min. shaking the plate on a mechanical shaker for the first 15 min. The incubation is stopped by rapid filtration of the plate contents followed by wash with ice-cold buffer (50 mM Tris-HCl, pH 7.4) using a cell harvester (Tomtek and Printed filtermat-B filter paper). The filter paper is thoroughly dried (7–12 min. in a microwave oven) and impregnated with MeltiLex B/H melt-on scintillation wax sheets and the radioactivity counted in a betaplate scintillation counter.
# Binding data is either reported as percent inhibition at a certain concentration or if an IC50 was calculated, as a nanomolar concentration.
# T1 sequence (P37288 whole entry): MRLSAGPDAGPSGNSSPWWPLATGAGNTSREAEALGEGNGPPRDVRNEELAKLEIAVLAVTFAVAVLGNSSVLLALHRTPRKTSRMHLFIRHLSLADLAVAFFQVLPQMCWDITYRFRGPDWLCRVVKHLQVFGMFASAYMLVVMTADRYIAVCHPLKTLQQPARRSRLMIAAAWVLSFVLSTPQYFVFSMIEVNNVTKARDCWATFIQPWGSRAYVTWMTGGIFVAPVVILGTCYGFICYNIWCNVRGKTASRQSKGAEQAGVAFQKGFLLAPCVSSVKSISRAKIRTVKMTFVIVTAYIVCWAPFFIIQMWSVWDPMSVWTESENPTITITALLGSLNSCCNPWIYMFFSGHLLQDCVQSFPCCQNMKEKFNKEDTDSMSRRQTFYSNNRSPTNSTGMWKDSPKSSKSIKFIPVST
Structure (SMILES),inhibition at 0.1 µM [%],V1a % inhibition @ 100 nM [%]
"O=C(NCc1cccnc1)c1ccc2n1Cc1ccccc1N(C(=O)c1ccc(-c3cccc4ccccc34)cc1Cl)C2 [Example 47, 10-[2-Chloro-4-(naphthalen-1-yl)benzoyl]-N-(3-pyridinylmethyl)-10,11-dihydro-5H-pyrrolo[2,1-c][1,4]benzodiazepine-3-carboxamide]",-1,
"COc1ccccc1-c1ccc(C(=O)N2Cc3ccc(C(=O)NCCc4ccccn4)n3Cc3ccccc32)cc1C [Example 49, 10-[(2′-Methoxy-2-methyl-[1,1′-biphenyl]-4-yl)carbonyl]-N-[2-(2-pyridinyl)ethyl]-10,11-dihydro-5H-pyrrolo[2,1-c][1,4]benzodiazepine-3-carboxamide]",1,
"Cc1ccccc1-c1ccc(C(=O)N2Cc3ccc(C(=O)NCCc4ccccn4)n3Cc3ccccc32)cc1C [Example 50, 10-[(2,2′-Dimethyl-[1,1′-biphenyl]-4-yl)carbonyl]-N-[2-(2-pyridinyl)ethyl]-10,11-dihydro-5H-pyrrolo[2,1-c][1,4]benzodiazepine-3-carboxamide]",26,
"COc1ccccc1-c1ccc(C(=O)N2Cc3ccc(C(=O)NCCc4ccccn4)n3Cc3ccccc32)cc1 [Example 52, 10-[(2′-Methoxy-[1,1′-biphenyl]-4-yl)carbonyl]-N-[2-(2-pyridinyl)ethyl]-10,11-dihydro-5H-pyrrolo[2,1-c][1,4]benzodiazepine-3-carboxamide]",16,
"Cc1ccccc1-c1ccc(C(=O)N2Cc3ccc(C(=O)NCCc4ccccn4)n3Cc3ccccc32)cc1 [Example 53, 10-[(2′-Methyl-[1,1′-biphenyl]-4-yl)carbonyl]-N-[2-(2-pyridinyl)ethyl]-10,11-dihydro-5H-pyrrolo[2,1-c][1,4]benzodiazepine-3-carboxamide]",11,
"COc1cc(-c2ccccc2C)c(Cl)cc1C(=O)N1Cc2ccc(C(=O)NCCc3ccccn3)n2Cc2ccccc21 [Example 55, 10-[(6-Chloro-3-methoxy-2′-methyl-[1,1′-biphenyl]-4-yl)carbonyl]-N-[2-(2-pyridinyl)ethyl]-10,11-dihydro-5H-pyrrolo[2,1-c][1,4]benzodiazepine-3-carboxamide]",-7,
"COc1cc(C(=O)N2Cc3ccc(C(=O)NCCc4ccccn4)n3Cc3ccccc32)ccc1-c1cccc2ccccc12 [Example 57, 10-[3-Methoxy-4-(naphthalen-1-yl)benzoyl]-N-[2-(2-pyridinyl)ethyl]-10,11-dihydro-5H-pyrrolo[2,1-c][1,4]benzodiazepine-3-carboxamide]",2,
"O=C(NCCc1ccccn1)c1ccc2n1Cc1ccccc1N(C(=O)c1ccc(-c3cccc4ccccc34)cc1Cl)C2 [Example 60, 10-[2-Chloro-4-(naphthalen-1-yl)benzoyl]-N-[2-(2-pyridinyl)ethyl]-10,11-dihydro-5H-pyrrolo[2,1-c][1,4]benzodiazepine-3-carboxamide]",4,
"Cc1cc(C(=O)N2Cc3ccc(C(=O)NCCc4ccccn4)n3Cc3ccccc32)ccc1-c1ccccc1C(F)(F)F [Example 61, 10-{[2-Methyl-2′-trifluoromethyl=[1,1′-biphenyl]-4-yl]carbonyl}-N-[2-(2-pyridinyl)ethyl]-10,11-dihydro-5H-pyrrolo[2,1-c][1,4]benzodiazepine-3-carboxamide]",,6
"COc1ccccc1-c1ccc(C(=O)N2Cc3ccc(C(=O)N(C)CCc4ccccn4)n3Cc3ccccc32)cc1OC [Example 64, 10-[(2,2′-Dimethoxy-[1,1′-biphenyl]-4-yl)carbonyl]-N-methyl-N-[2-(2-pyridinyl)ethyl]-10,11-dihydro-5H-pyrrolo[2,1-c][1,4]benzodiazepine-3-carboxamide]",21,
COc1cc(C(=O)N2Cc3ccc(C(=O)N4CCN(c5ccccn5)CC4)n3Cc3ccccc32)ccc1-c1cccc2ccccc12 [Example 83],,9
COc1cccc(-c2ccc(C(=O)N3Cc4ccc(C(=O)NCc5ccncc5)n4Cc4ccccc43)cc2OC)c1 [Example 98],,24

# Now from value to compound, other results behind:
inhibition at 0.1 µM [%],Structure (SMILES),V1a % inhibition @ 100 nM [%]
11,"COc1cc(C(=O)N2Cc3ccc(C(=O)NCc4cccnc4)n3Cc3ccccc32)ccc1-c1cccc2ccccc12 [Example 44, 10-[3-Methoxy-4-(naphthalen-1-yl)benzoyl]-N-(3-pyridinylmethyl)-10,11-dihydro-5H-pyrrolo[2,1-c][1,4]benzodiazepine-3-carboxamide]",
5,"COc1ccccc1-c1ccc(C(=O)N2Cc3ccc(C(=O)NCc4cccnc4)n3Cc3ccccc32)cc1OC [Example 45, 10-[(2,2′-Dimethoxy-[1,1′-biphenyl]-4-yl)carbonyl]-N-(3-pyridinylmethyl)-10,11-dihydro-5H-pyrrolo[2,1-c][1,4]benzodiazepine-3-carboxamide]",
7,"COc1cccc(-c2ccc(C(=O)N3Cc4ccc(C(=O)NCc5cccnc5)n4Cc4ccccc43)cc2OC)c1 [Example 46, 10-[(2,3′-Dimethoxy-[1,1′-biphenyl]-4-yl)carbonyl]-N-(3-pyridinylmethyl)-10,11-dihydro-5H-pyrrolo[2,1-c][1,4]benzodiazepine-3-carboxamide]",
0,"Cc1cc(C(=O)N2Cc3ccc(C(=O)NCc4cccnc4)n3Cc3ccccc32)ccc1-c1ccccc1C(F)(F)F [Example 48, 10-{[2-Methyl-2′-trifluoromethyl-[1,1′-biphenyl]-4-yl]carbonyl}-N-(3-pyridinylmethyl)-10,11-dihydro-5H-pyrrolo[2,1-c][1,4]benzodiazepine-3-carboxamide]",
2,"COc1cccc(-c2ccc(C(=O)N3Cc4ccc(C(=O)NCCc5ccccn5)n4Cc4ccccc43)cc2C)c1 [Example 51, 10-[(3′-Methoxy-2-methyl-[1,1′-biphenyl]-4-yl)carbonyl]-N-[2-(2-pyridinyl)ethyl]-10,11-dihydro-5H-pyrrolo[2,1-c][1,4]benzodiazepine-3-carboxamide]",
30,"COc1cc(C(=O)N2Cc3ccc(C(=O)NCCc4ccccn4)n3Cc3ccccc32)ccc1-c1ccccc1C [Example 54, 10-[(2-Methoxy-2′-methyl-[1,1′-biphenyl]-4-yl)carbonyl]-N-[2-(2-pyridinyl)ethyl]-10,11-dihydro-5H-pyrrolo[2,1-c][1,4]benzodiazepine-3-carboxamide]",
-11,"COc1cccc(-c2cc(OC)c(C(=O)N3Cc4ccc(C(=O)NCCc5ccccn5)n4Cc4ccccc43)cc2Cl)c1 [Example 56, 10-[(6-Chloro-3,3′-dimethoxy-[1,1′-biphenyl]-4-yl)carbonyl]-N-[2-(2-pyridinyl)ethyl]-10,11-dihydro-5H-pyrrolo[2,1-c][1,4]benzodiazepine-3-carboxamide]",
9,"COc1ccccc1-c1ccc(C(=O)N2Cc3ccc(C(=O)NCCc4ccccn4)n3Cc3ccccc32)cc1OC [Example 58, 10-[(2,2′-Dimethoxy-[1,1′-biphenyl]-4-yl)carbonyl]-N-[2-(2-pyridinyl)ethyl]-10,11-dihydro-5H-pyrrolo[2,1-c][1,4]benzodiazepine-3-carboxamide]",
12,"COc1cccc(-c2ccc(C(=O)N3Cc4ccc(C(=O)NCCc5ccccn5)n4Cc4ccccc43)cc2OC)c1 [Example 59, 10-[(2,3′-Dimethoxy-[1,1′-biphenyl]-4-yl)carbonyl]-N-[2-(2-pyridinyl)ethyl]-10,11-dihydro-5H-pyrrolo[2,1-c][1,4]benzodiazepine-3-carboxamide]",

# — patent US7064120B2, “Tricyclic pyridyl carboxamides and derivatives thereof tocolytic oxytocin receptor antagonists” (Wyeth, priority 2001, dated 2006)
